From US12478628B2, “Germ cell nuclear factor ligands and methods of use thereof” (Saint Louis University, priority 2020, dated 2025)

Columns and labels:
GCNF LBD = molecular target: T1, GCNF LBD (Homo sapiens, UniProt Q15406); assay: Solution 1H NMR methyl peak perturbation of GCNF LBD; assay type: binding; conditions: 1.05:1 molar equivalence of ligand; seven shielded resonances monitored
T1 construct: Human GCNF (NR6A1) LBD (residues 248-480); made in house; host or cells: E. coli BL(21) DE3
T1 sequence (Q15406 248-480): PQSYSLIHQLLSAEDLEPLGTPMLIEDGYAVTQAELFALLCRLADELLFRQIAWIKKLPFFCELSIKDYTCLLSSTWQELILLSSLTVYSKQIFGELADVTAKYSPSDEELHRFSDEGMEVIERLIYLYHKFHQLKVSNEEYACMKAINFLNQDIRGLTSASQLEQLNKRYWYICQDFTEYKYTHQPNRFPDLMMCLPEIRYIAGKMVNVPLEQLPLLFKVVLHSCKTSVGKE
Experimental: Solution NMR spectroscopy. One hundred micromolar (100 μM) of GCNF LBD with 10% D2O were mixed with either 0.5% DMSO-d6 or 1.05:1 molar equivalence of ligand and transferred to a Shigemi tube. ^1H NMR data were acquired at 298 K on a 700 MHz Bruker Avance II HDTM NMR instrument equipped with a QCI cryoprobe. For each spectrum, 1024 transients were collected into 32,000 data points, with a spectral width of 16.7 kHz. Data were analyzed using Topspin 3.5 pl 7.

[1] = molecular target: T2, GCNF LBD with NCoR ID1 corepressor peptide (Homo sapiens, UniProt Q15406); assay: FP ligand titration assay, NCoR ID1 peptide recruitment; assay type: biochemical; conditions: 20 μM GCNF LBD
T2 construct: Human GCNF (NR6A1) LBD (residues 248-480); made in house; host or cells: E. coli BL(21) DE3
T2 sequence (Q15406 248-480): T1 sequence (Q15406 248-480)
Experimental: FP Assay. Fluorescence polarization (FP) assays were performed in triplicate on a 384-well Corning 3820 black opaque plate using a Biotek Synergy Neo2 HTS multimode microplate reader at excitation and emission wavelengths of 485 nm and 538 nm, respectively. Data were analyzed and plotted using GraphPad Prism as mean±SEM.
For the FP ligand titration assay, the aforementioned N-terminus fluorescein-tagged corepressor peptides were diluted to 500 nM from a 100 μM DMSO stock in the presence of 20 μM GCNF LBD and ligand concentration points 30, 20, 13, 9, 6, 4, 2.6, 1.7 and 0 μM in assay buffer containing 50 mM HEPES (pH 7.5), 50 mM KCl, 5 mM TCEP, 0.5 mM EDTA and 0.005% Tween20. The relative polarization was plotted against log of ligand concentration (μM) and the half maximal effective concentration (EC50) values were derived via sigmoidal fit.

[2] = system: i3 neurons differentiated from induced pluripotent stem cells (iPSCs); assay: iPSC differentiation to i3 neurons, morphology; assay type: cell-based; parameters: neurite outgrowth: dose or concentration left out as unconfirmed; conditions: ligand treatment before and during differentiation
Experimental: iPSC Differentiation to Neurons. For growing neurons from iPSC cells, the method described by Femandopulle were employed (Femandopulle et al., 2018). Briefly, cells were treated with doxycycline to turn on expression of Neurogenin-2 (NGN2), which irreversibly sets these cells on the path of neuronal differentiation. The cells were treated with doxycycline for 3 days (changing media every day), and then re-plate the cells onto new plates coated with PLO. For each time point, 21 samples were prepared (DMSO and ligands 34 and 80 at different concentrations, in triplicate).
An overview of the experiment timeline is shown as well: • Day 0: Plate iPSC on matrigel-coated 12-well plates • Day 2: Treat cells −/+ ligands in iPSC media • Day 3: Refeed cells induction media +Doxycycline −/+ ligands to start neuronal differentiation (Day 0 of differentiation) • Day 4: Refeed cells induction media +Doxycycline −/+ ligands (Day 1 of differentiation) • Day 5: Refeed cells induction media +Doxycycline −/+ ligands (Day 2 of differentiation) • Day 6: Take pictures; Refeed cells neuronal media −/+ ligands (Day 3 of differentiation) • Day 7: Collect cells for RNA/qPCR (Day 4 of differentiation)

COUP-TF I LBD = molecular target: T3, COUP-TF I LBD (Homo sapiens, UniProt P10589); assay: DSF specificity assay, COUP-TF I; assay type: binding
T3 construct: human COUP-TF I LBD (residues 184-410); hexahistidine tag with 3C protease site; made in house; host or cells: E. coli BL(21) DE3
T3 sequence (P10589 184-410): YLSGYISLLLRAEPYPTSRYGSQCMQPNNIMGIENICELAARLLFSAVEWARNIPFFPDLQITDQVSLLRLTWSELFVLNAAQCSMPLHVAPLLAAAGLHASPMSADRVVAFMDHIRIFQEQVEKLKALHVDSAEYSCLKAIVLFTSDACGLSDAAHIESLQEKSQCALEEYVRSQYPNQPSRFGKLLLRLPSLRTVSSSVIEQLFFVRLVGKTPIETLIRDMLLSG
Experimental: Protein Expression and Purification. Human GCNF (NR6A1) LBD (residues 248-480) and mutants F284A/F361A, human LRH-1 (NR5A2) LBD (residues 291-541), human RXRα LBD (residues 223-462), human COUP-TF I LBD (residues 184-410) and human SF-1 LBD (residues 219-461) were subcloned in pET45b(+) plasmid (Novagen) were expressed in E. coli BL(21) DE3 cells in terrific broth with 0.1 mg/mL ampicillin as 3C protease-cleavable hexahistidine-tagged fusion proteins. The bacterial culture was grown at 37° C. to an optical density of 0.8 to 1.0 at 600 nm. Protein expression was induced by adding 1 mM IPTG and was allowed to proceed for 14 h at 22° C. […]
DSF Assay. […] A total of 450 compounds (Life Chemicals) previously selected from a nuclear-receptor-biased library targeting REV-ERB were analyzed. Thermal stability was assessed on a Quantstudio 6 instrument (Biosystems) by ramping the temperature from 25° C. to 95° C. at 0.05° C./s and protein melt shifts were subsequently quantified by Boltzmann-derived melting temperature (Tm) using the Protein Thermal Shift (ThermoFisher) software. […]

Row | SMILES | shielded methyl 1H NMR resonances of GCNF LBD perturbed (GCNF LBD) | effect on recruitment of NCoR ID1 to GCNF [1] | area of cell bodies [2] | neurite branching [2] | neurite outgrowth [2] | change of Tm of COUP-TF I LBD (COUP-TF I LBD)
1 | Cc1ccc(-n2ncc3c(N4CCOCC4)nc(NCc4ccco4)nc32)cc1 [Ligand 34, N-[(furan-2-yl)methyl]-1-(4-methylphenyl)-4-(morpholin-4-yl)-1H-pyrazolo[3,4-d]pyrimidin-6-amine] | 5 of 7 | did not substantially alter | remain unchanged | more extensive branching | significant increase of neurite outgrowth | did not significantly change
2 | O=C(Cn1cc(S(=O)(=O)c2ccccc2)c2ccccc21)N1CCc2ccccc21 [Ligand 80, 2-[3-(benzenesulfonyl)-1H-indol-1-yl]-1-(2,3-dihydro-1H-indol-1-yl)ethan-1-one] | 5 out of 7 | did not substantially alter | remain unchanged | more extensive branching | significant increase of neurite outgrowth | did not significantly change
